In patent US20230355597A1, “COMPOUNDS, COMPOSITIONS, AND METHODS FOR THE TREATMENT AND PREVENTION OF AVIAN PATHOGENIC E. COLI (APEC)” (OHIO STATE INNOVATION FOUNDATION, priority 2018, published 2023):

What was measured:
[1] = test system: AI-2 activity of APEC O18; experiment: AI-2 bioluminescence indicator assay (V. harveyi BB170); details: APEC O18, 100 µM
[2] = test system: AI-2 activity of APEC O109; experiment: as above; details: APEC O109, 100 µM
[3] = test system: AI-2 activity of APEC O35; experiment: as above; details: APEC O35, 100 µM
AI-2 activity of APEC O8 = experiment: as above; details: APEC O8, 100 µM
APEC O2 in THP-1 cells = experiment: Intracellular survival assay (AI-2 inhibitors); details: O2, THP-1, 100 µM, 6 h
[4] = test system: AI-2 activity of APEC O78; experiment: AI-2 bioluminescence indicator assay (V. harveyi BB170); details: APEC O78, 100 µM
AI-2 activity of APEC O2 = experiment: as above; details: APEC O2, 100 µM
APEC O2 in HD-11 cells = experiment: Intracellular survival assay (AI-2 inhibitors); details: O2, HD-11, 100 µM, 6 h
[5] = test system: AI-2 activity of APEC O15; experiment: AI-2 bioluminescence indicator assay (V. harveyi BB170); details: APEC O15, 100 µM
[6] = test system: QS and virulence associated genes of APEC O78; experiment: qRT-PCR of QS-regulated and virulence factors genes; type: cell-based, avian pathogenic Escherichia coli (APEC); details: 100 µM, 10 h
Protocol: Quantitative real-time reverse transcription PCR (qRT-PCR). […] APEC O78 was grown in the presence of 100 µM of each compound in a 96-well plate at 37° C. for 10 h. APEC O78 culture treated with 1 µL of 100% DMSO was used as […]. Total RNA was extracted from duplicate wells for each compound (200 µL) using a miRNeasy Mini Kit (Qiagen). RNA quality and quantity was determined by nanodrop 2000 C spectrophotometer (Thermo scientific). Traces of DNA was removed using Genomic DNA removal mix (Qiagen). Approximately, 5 µg of purified RNA was used to synthesize cDNA using the Qiagen RT^2 First Strand Kit (Qiagen). The qRT-PCR was performed using SensiMix™ SYBER® Hi-Rox qPCR Master Mix (Bioline) according to manufacturer instructions in a realplex^2 mastercycler (Eppendorf) with 55° C. annealing temperature. Gene-specific primers were designed using PrimerQuest Tool and obtained from integrated DNA technologies (IDT). The data were normalized to the house-keeping gene, glyceraldehyde-3-phosphate dehydrogenase (GAPDH). The relative fold change was calculated using the ΔΔCt method. Three independent experiments were conducted.

AI-2 activity of APEC O1 = experiment: AI-2 bioluminescence indicator assay (V. harveyi BB170); details: APEC O1, 100 µM
APEC O78 in HD-11 cells = experiment: Intracellular survival assay (AI-2 inhibitors); type: cell-based, avian pathogenic Escherichia coli (APEC); details: O78, HD-11, 100 µM, 6 h
Excerpt: Intracellular survival assay.

[7] = test system: AI-2 activity of APEC O115; experiment: AI-2 bioluminescence indicator assay (V. harveyi BB170); details: APEC O115, 100 µM
Rif^r APEC O78 [8] = experiment: In vivo screening of quorum sensing inhibitors in APEC infected broiler chickens
Rif^r APEC O78 [9] = experiment: Wax moth (Galleria mellonella) larva infection model (AI-2 inhibitors)
Caco-2 cells = experiment: LDH assay of AI-2 inhibitors; details: Caco-2, 100 µM, 24 h

Compound	Inhibition % of AI-2 activity [1]	Inhibition % of AI-2 activity [2]	Inhibition % of AI-2 activity [3]	Inhibition % of AI-2 activity (AI-2 activity of APEC O8)	Inhibition % of AI-2 activity [4]	Inhibition % of AI-2 activity (AI-2 activity of APEC O2)	Inhibition % of AI-2 activity [5]	expression of cheW [6]	expression of csrA [6]	Inhibition % of AI-2 activity (AI-2 activity of APEC O1)	Inhibition % of AI-2 activity [7]	toxicity (LDH) (Caco-2 cells)	further results
Fc1ccc(CN2CCCN(Cc3nc(-c4ccc(C(F)(F)F)cc4)no3)CC2)cc1 [C9, 1-(4-flurobenzyl)-4-((3-[4-(trifluoromethyl)phenyl]-1,2,4-oxadiazol-5-yl]methyl)-1,4-diazapane]	14%	66%	36%	20%	79%	51%	0%	down-regulated	down-regulated	19%	44%		clearance of intracellular APEC (APEC O2 in THP-1 cells): 100%; reduction of intracellular survival (APEC O2 in THP-1 cells; vs DMSO): 4 logs; clearance of intracellular APEC (APEC O2 in HD-11 cells): 100%; reduction of intracellular survival (APEC O2 in HD-11 cells; vs DMSO): 3.3 logs; expression of murD [6]: down-regulated; clearance of intracellular APEC (APEC O78 in HD-11 cells): 100%; reduction of intracellular survival (APEC O78 in HD-11 cells; vs DMSO): 4 logs
CCc1ccccc1Nc1nc(-c2c(C)nc3ccccn23)cs1 [C8, N-{2-ethyphenyl)-4-(2-methylimidazo[1,2-a]pyridin-3-yl)-1.3-thiazol-2-amine]	54%		57%	18%	98%	94%	25%			41%	44%	2%	reduction in chicken mortality (Rif^r APEC O78 [8]; DMSO control mortality normalized to 100%): 50%; average lesion score reduction (Rif^r APEC O78 [8]; liver, heart, lung and airsac, vs DMSO): 1.0-2.0; reduction of bacterial load in internal organs (Rif^r APEC O78 [8]; liver, lung, heart, and kidney, vs DMSO control, 'up to'): 2.2-3.1 log CFU/g; Mortality rate (%) (Rif^r APEC O78 [8]; oral gavage once a day, day 4 to day 8, DMSO control 66.7%): 33.3%; Reduction in APEC lesions severity, Air-sacs (%) (Rif^r APEC O78 [8]; vs DMSO treated control): 66.7%; Reduction in APEC lesions severity, Heart (%) (Rif^r APEC O78 [8]; vs DMSO treated control): 75%; Reduction in APEC lesions severity, Liver (%) (Rif^r APEC O78 [8]; vs DMSO treated control): 75%; Reduction in APEC lesions severity, Lung (%) (Rif^r APEC O78 [8]; vs DMSO treated control): 83.3%; larval death (Rif^r APEC O78 [9]; 48 h post treatment): no larval death; clearance of APEC in live larvae (Rif^r APEC O78 [9]; 72 h): 100%; expression of fliP [6]: down-regulated
COC(=S)NN=Cc1cc(C)ccc1O [C4, methyl N′-{2-hydroxy-5-methylbenzylidene)hydrazonethiocarbonate]	54%	67%	60%	0%	75%	76%	46%	down-regulated	down-regulated	63%	58%	12%	expression of iucD [6]: down-regulated; expression of pfs [6]: up-regulated
